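48-hour exposure; five concentrations; linearly interpolated endpoints. TGI: total growth inhibition.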
Columns and labels:
Experiment in all cases: DTP human tumour cell line panel, 48 h
PC-3 prostate = test system: PC-3 prostate
HS 578T breast = test system: HS 578T breast
MDA-MB-231 breast = test system: MDA-MB-231 breast
OVCAR-4 ovarian = test system: OVCAR-4 ovarian
SR leukemia = test system: SR leukemia
A549 NSCLC = test system: A549 NSCLC
SF-268 CNS = test system: SF-268 CNS
COLO 205 colon = test system: COLO 205 colon
HOP-62 NSCLC = test system: HOP-62 NSCLC
MDA-MB-435 = test system: MDA-MB-435
OVCAR-3 ovarian = test system: OVCAR-3 ovarian
DU-145 prostate = test system: DU-145 prostate
LOX IMVI melanoma = test system: LOX IMVI melanoma
UACC-257 melanoma = test system: UACC-257 melanoma
U251 CNS = test system: U251 CNS
KM12 colon = test system: KM12 colon
SNB-75 CNS = test system: SNB-75 CNS
SK-MEL-5 melanoma = test system: SK-MEL-5 melanoma
SN12C renal = test system: SN12C renal
SW-620 colon = test system: SW-620 colon
IGROV1 ovarian = test system: IGROV1 ovarian
SK-MEL-2 melanoma = test system: SK-MEL-2 melanoma
EKVX NSCLC = test system: EKVX NSCLC
HOP-92 NSCLC = test system: HOP-92 NSCLC
SF-539 CNS = test system: SF-539 CNS
MDA-N = test system: MDA-N
NCI-H23 lung = test system: NCI-H23 lung
NCI/ADR-RES ovarian = test system: NCI/ADR-RES ovarian
SF-295 CNS = test system: SF-295 CNS
CAKI-1 renal = test system: CAKI-1 renal
TK-10 renal = test system: TK-10 renal
ACHN renal = test system: ACHN renal
OVCAR-8 ovarian = test system: OVCAR-8 ovarian
K-562 leukemia = test system: K-562 leukemia
BT-549 breast = test system: BT-549 breast
CCRF-CEM leukemia = test system: CCRF-CEM leukemia
M14 melanoma = test system: M14 melanoma
786-0 renal = test system: 786-0 renal
OVCAR-5 ovarian = test system: OVCAR-5 ovarian
T-47D breast = test system: T-47D breast
HT29 colon = test system: HT29 colon
MOLT-4 leukemia = test system: MOLT-4 leukemia
NCI-H460 lung = test system: NCI-H460 lung
SNB-19 CNS = test system: SNB-19 CNS
HL-60(TB) leukemia = test system: HL-60(TB) leukemia
UO-31 renal = test system: UO-31 renal
SK-OV-3 ovarian = test system: SK-OV-3 ovarian
HCT-15 colon = test system: HCT-15 colon
NCI-H522 lung = test system: NCI-H522 lung
RPMI-8226 leukemia = test system: RPMI-8226 leukemia
UACC-62 melanoma = test system: UACC-62 melanoma
MALME-3M melanoma = test system: MALME-3M melanoma
A498 renal = test system: A498 renal
SK-MEL-28 melanoma = test system: SK-MEL-28 melanoma
MCF7 breast = test system: MCF7 breast
RXF 393 renal = test system: RXF 393 renal
HCT-116 colon = test system: HCT-116 colon

## CCCc1c2c3ccccc3nc-2nc2ccccn12
PC-3 prostate
  TGI: > 100 µM
HS 578T breast
  TGI: > 100 µM
MDA-MB-231 breast
  TGI: > 100 µM
OVCAR-4 ovarian
  TGI: > 100 µM
SR leukemia
  TGI: > 100 µM
A549 NSCLC
  TGI: > 100 µM
SF-268 CNS
  TGI: 70.4 µM
COLO 205 colon
  TGI: > 100 µM
HOP-62 NSCLC
  TGI: 90.7 µM
MDA-MB-435
  TGI: > 100 µM
OVCAR-3 ovarian
  TGI: > 100 µM
DU-145 prostate
  TGI: > 100 µM
LOX IMVI melanoma
  TGI: > 100 µM
UACC-257 melanoma
  TGI: > 100 µM
U251 CNS
  TGI: > 100 µM
KM12 colon
  TGI: > 100 µM
SNB-75 CNS
  TGI: > 100 µM
SK-MEL-5 melanoma
  TGI: > 100 µM
SN12C renal
  TGI: > 100 µM
SW-620 colon
  TGI: > 100 µM
IGROV1 ovarian
  TGI: > 100 µM
SK-MEL-2 melanoma
  TGI: > 100 µM
EKVX NSCLC
  TGI: > 100 µM
HOP-92 NSCLC
  TGI: > 100 µM
SF-539 CNS
  TGI: > 100 µM
MDA-N
  TGI: > 100 µM
NCI-H23 lung
  TGI: 88.6 µM
NCI/ADR-RES ovarian
  TGI: > 100 µM
SF-295 CNS
  TGI: > 100 µM
CAKI-1 renal
  TGI: > 100 µM
TK-10 renal
  TGI: > 100 µM
ACHN renal
  TGI: > 100 µM
OVCAR-8 ovarian
  TGI: > 100 µM
K-562 leukemia
  TGI: > 100 µM
BT-549 breast
  TGI: > 100 µM
CCRF-CEM leukemia
  TGI: > 100 µM
M14 melanoma
  TGI: > 100 µM
786-0 renal
  TGI: > 100 µM
OVCAR-5 ovarian
  TGI: 88.1 µM
T-47D breast
  TGI: > 100 µM
HT29 colon
  TGI: > 100 µM
MOLT-4 leukemia
  TGI: > 100 µM
NCI-H460 lung
  TGI: > 100 µM
SNB-19 CNS
  TGI: > 100 µM
HL-60(TB) leukemia
  TGI: > 100 µM
UO-31 renal
  TGI: > 100 µM
SK-OV-3 ovarian
  TGI: > 100 µM
HCT-15 colon
  TGI: > 100 µM
NCI-H522 lung
  TGI: > 100 µM
RPMI-8226 leukemia
  TGI: > 100 µM
UACC-62 melanoma
  TGI: > 100 µM
MALME-3M melanoma
  TGI: > 100 µM
A498 renal
  TGI: > 100 µM
SK-MEL-28 melanoma
  TGI: > 100 µM

## COc1ccc(C)cc1NC(=S)N/N=C/c1ccc(SC)cc1
PC-3 prostate
  TGI: > 100 µM
HS 578T breast
  TGI: > 100 µM
OVCAR-4 ovarian
  TGI: > 100 µM
SR leukemia
  TGI: > 100 µM
A549 NSCLC
  TGI: > 100 µM
SF-268 CNS
  TGI: > 100 µM
COLO 205 colon
  TGI: > 100 µM
HOP-62 NSCLC
  TGI: > 100 µM
MDA-MB-435
  TGI: > 100 µM
OVCAR-3 ovarian
  TGI: > 100 µM
DU-145 prostate
  TGI: > 100 µM
LOX IMVI melanoma
  TGI: > 100 µM
KM12 colon
  TGI: > 100 µM
SNB-75 CNS
  TGI: > 100 µM
SK-MEL-5 melanoma
  TGI: 51.9 µM
MCF7 breast
  TGI: > 100 µM
SN12C renal
  TGI: > 100 µM
SW-620 colon
  TGI: > 100 µM
IGROV1 ovarian
  TGI: > 100 µM
SK-MEL-2 melanoma
  TGI: > 100 µM
HOP-92 NSCLC
  TGI: > 100 µM
SF-539 CNS
  TGI: 89.9 µM
MDA-N
  TGI: > 100 µM
NCI-H23 lung
  TGI: > 100 µM
NCI/ADR-RES ovarian
  TGI: > 100 µM
SF-295 CNS
  TGI: > 100 µM
CAKI-1 renal
  TGI: > 100 µM
ACHN renal
  TGI: > 100 µM
OVCAR-8 ovarian
  TGI: > 100 µM
K-562 leukemia
  TGI: > 100 µM
BT-549 breast
  TGI: > 100 µM
CCRF-CEM leukemia
  TGI: > 100 µM
M14 melanoma
  TGI: 73.9 µM
786-0 renal
  TGI: > 100 µM
OVCAR-5 ovarian
  TGI: > 100 µM
T-47D breast
  TGI: > 100 µM
HT29 colon
  TGI: > 100 µM
MOLT-4 leukemia
  TGI: > 100 µM
SNB-19 CNS
  TGI: > 100 µM
HL-60(TB) leukemia
  TGI: > 100 µM
UO-31 renal
  TGI: > 100 µM
RXF 393 renal
  TGI: > 100 µM
SK-OV-3 ovarian
  TGI: 91.4 µM
HCT-15 colon
  TGI: > 100 µM
NCI-H522 lung
  TGI: > 100 µM
RPMI-8226 leukemia
  TGI: 76.3 µM
UACC-62 melanoma
  TGI: > 100 µM
MALME-3M melanoma
  TGI: > 100 µM
A498 renal
  TGI: > 100 µM
SK-MEL-28 melanoma
  TGI: > 100 µM
HCT-116 colon
  TGI: > 100 µM

Reference: PubChem BioAssay (NCI)
